According to patent publication US20260209214A1, “LSD1 MODULATORS” (RECURSION PHARMACEUTICALS, INC., priority 2022, published 2026):

Biological target: Recombinant human LSD1 (Homo sapiens, UniProt O60341)
Assay: LSD1 inhibition assay (HTRF LSD1 Histone H3K4 mono-demethylation assay, me1->me0)
Type: biochemical
Conditions: 20 nM recombinant human LSD1, 95 nM H3K4(me1) biotinylated peptide, 15 min preincubation, 60 min at 25° C., read-out: LSD1 inhibition IC50 (nM range)
How it was run: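 HTRF demethylation (me1->me0) read-out: streptavidin-XL665 and anti-H3K4me0 cryptate added after reaction, ratio measured after 90 min dark. Reaction: 95 nM H3K4me1 biotin-peptide, 20 nM LSD1 (15-min compound pre-incubation), 60 min, 25 °C, buffer pH 8.5 plus FAD and DTT; 4-parameter logistic IC50.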

| SMILES | IC50 [nM] |
| --- | --- |
| CN1CCC2CN(Cc3cccc(-c4ccc(C#N)c(F)c4)c3C3CC3)CC21 (centres unmarked) [Example 276, 2'-cyclopropyl-3-fluoro-3'-({1-methyl-octahydropyrrolo[2,3-c]pyrrol-5-yl}methyl)-[1,1'-biphenyl]-4-carbonitrile] | 100 to 1000 |
| CN1CC2CN(Cc3cccc(-c4ccc(C#N)c(F)c4)c3C3CC3)CC21 (centres unmarked) [Example 277, 2'-cyclopropyl-3-fluoro-3'-({6-methyl-3,6-diazabicyclo[3.2.0]heptan-3-yl}methyl)-[1,1'-biphenyl]-4-carbonitrile] | 25 to 100 |
| CC1(C)CN(Cc2cccc(-c3ccc(C#N)c(F)c3)c2C2CC2)CC1N (centres unmarked) [Example 278, 3'-[(4-amino-3,3-dimethylpyrrolidin-1-yl)methyl]-2'-cyclopropyl-3-fluoro-[1,1'-biphenyl]-4-carbonitrile] | 100 to 1000 |
| N#Cc1ccc(-c2cccc(Cn3ncc4c3CNCC4)c2-c2cncs2)cc1F [Example 280, 3-fluoro-3'-({1H,4H,5H,6H,7H-pyrazolo[3,4-c]pyridin-1-yl}methyl)-2'-(1,3-thiazol-5-yl)-[1,1'-biphenyl]-4-carbonitrile] | 100 to 1000 |
| N#Cc1ccc(-c2cccc(CN3CCCCC34CCCNC4)c2Cl)cc1F (centres unmarked) [Example 281, 2'-chloro-3'-({1,8-diazaspiro[5.5]undecan-1-yl}methyl)-3-fluoro-[1,1'-biphenyl]-4-carbonitrile] | > 1000 |
| N#Cc1ccc(-c2cccc(CN3CC4CCC3CN4)c2Cl)cc1F (centres unmarked) [Example 283, 2'-chloro-3'-({2,5-diazabicyclo[2.2.2]octan-2-yl}methyl)-3-fluoro-[1,1'-biphenyl]-4-carbonitrile] | 100 to 1000 |
| N#Cc1ccc(-c2cccc(CN3CC4CNC(C4)C3)c2Cl)cc1F (centres unmarked) [Example 284, 2'-chloro-3'-({3,6-diazabicyclo[3.2.1]octan-3-yl}methyl)-3-fluoro-[1,1'-biphenyl]-4-carbonitrile] | 100 to 1000 |
| N#Cc1ccc(-c2cccc(CN3C[C@H](N)C[C@H](F)C3)c2Cl)cc1F [Example 285, 3'-{[(3R,5S)-3-amino-5-fluoropiperidin-1-yl]methyl}-2'-chloro-3-fluoro-[1,1'-biphenyl]-4-carbonitrile] | 100 to 1000 |
| CC1(N)CCCN(Cc2cccc(-c3ccc(C#N)c(F)c3)c2Cl)C1 (centres unmarked) [Example 286, 3'-[(3-amino-3-methylpiperidin-1-yl)methyl]-2'-chloro-3-fluoro-[1,1'-biphenyl]-4-carbonitrile] | > 1000 |
| N#Cc1ccc(-c2cccc(CN3CC4CC4(N)C3)c2Cl)cc1F (centres unmarked) [Example 287, 3'-({1-amino-3-azabicyclo[3.1.0]hexan-3-yl}methyl)-2'-chloro-3-fluoro-[1,1'-biphenyl]-4-carbonitrile] | > 1000 |
| N#Cc1ccc(-c2cccc(CN3CC4(CCNCC4)C3)c2Cl)cc1F [Example 288, 2'-chloro-3'-({2,7-diazaspiro[3.5]nonan-2-yl}methyl)-3-fluoro-[1,1'-biphenyl]-4-carbonitrile] | 100 to 1000 |
| CN1CCC12CCN(Cc1c(F)ccc(-c3ccc(C#N)c(F)c3)c1Cl)C2 (centres unmarked) [Example 289, 2'-chloro-3,4'-difluoro-3'-({1-methyl-1,6-diazaspiro[3.4]octan-6-yl}methyl)-[1,1'-biphenyl]-4-carbonitrile] | 100 to 1000 |
| CN1CCC12CCN(Cc1c(F)ccc(-c3ccc(C#N)c(F)c3)c1F)C2 (centres unmarked) [Example 290, 2', 3,4'-trifluoro-3'-({1-methyl-1,6-diazaspiro[3.4]octan-6-yl}methyl)-[1,1'-biphenyl]-4-carbonitrile] | > 1000 |
| N#Cc1ccc(-c2ccc(F)c(CN3C[C@@H]4[C@H](N)[C@@H]4C3)c2Cl)cc1F [Example 291, 3'-{[(1R,5S,6S)-6-amino-3-azabicyclo[3.1.0]hexan-3-yl]methyl}-2'-chloro-3,4'-difluoro-[1,1'-biphenyl]-4-carbonitrile] | 100 to 1000 |
| N#Cc1ccc(-c2cccc(CN3CC4(CCN4)C3)c2Cl)cc1F [Example 292, 2'-chloro-3'-({1,6-diazaspiro[3.3]heptan-6-yl}methyl)-3-fluoro-[1,1'-biphenyl]-4-carbonitrile] | > 1000 |
| Cc1cc(CN2C[C@H]3C[C@@H]2CN3)c(C)c(-c2ccc(C#N)c(F)c2)c1 [Example 293, 3'-{[(1R,4R)-2,5-diazabicyclo[2.2.1]heptan-2-yl]methyl}-3-fluoro-2',5'-dimethyl-[1,1'-biphenyl]-4-carbonitrile] | 100 to 1000 |
| N#Cc1ccc(-c2cc(CN3C[C@]4(N)CC[C@H]3C4)cc(N3CCCC3)c2)cc1F [Example 294, 4-[3-[[(1S,4S)-4-amino-2-azabicyclo[2.2.1]heptan-2-yl]methyl]-5-pyrrolidin-1-yl-phenyl]-2-fluoro-benzonitrile] | 100 to 1000 |
| CC(C)N(C)c1ccc(CN2CCN(C)CC2)cc1-c1ccc(C#N)c(F)c1 [Example 295, 3-fluoro-2'-[methyl(propan-2-yl)amino]-5'-[(4-methylpiperazin-1-yl)methyl]-[1,1'-biphenyl]-4-carbonitrile] | > 1000 |

| SMILES | IC50 [nM] |
| --- | --- |
| CN1CCN(Cc2ccc(N3CCC3)c(-c3ccc(C#N)c(F)c3)c2)CC1 [Example 296, 2'-(azetidin-1-yl)-3-fluoro-5'-[(4-methylpiperazin-1-yl)methyl]-[1,1'-biphenyl]-4-carbonitrile] | > 1000 |
| Cc1cc(CN2C[C@@H]3C[C@H]2CN3C(C)C)c(Cl)c(-c2ccc(C#N)c(F)c2)c1 [Example 297, 2'-chloro-3-fluoro-5'-methyl-3'-{[(1S,4S)-5-(propan-2-yl)-2,5-diazabicyclo[2.2.1]heptan-2-yl]methyl}-[1,1'-biphenyl]-4-carbonitrile] | 100 to 1000 |
| Cc1cc(CNCC2(C)CCN(C)C2)c(Cl)c(-c2ccc(C#N)c(F)c2)c1 (centres unmarked) [Example 298, 2'-chloro-3'-({[(1,3-dimethylpyrrolidin-3-yl)methyl]amino}methyl)-3-fluoro-5'-methyl-[1,1'-biphenyl]-4-carbonitrile] | 100 to 1000 |
| Cc1cc(CN2C[C@@H]3C[C@H]2CN3)c(Cl)c(-c2ccc(C#N)c(F)c2)c1 [Example 299, 2′-chloro-3'-{[(1S,4S)-2,5-diazabicyclo[2.2.1]heptan-2-yl]methyl}-3-fluoro-5'-methyl-[1,1'-biphenyl]-4-carbonitrile] | 25 to 100 |
| C[C@]1(N)CCN(Cc2cccc(-c3ccc(C#N)c(F)c3)c2-c2ccns2)C1 [Example 302, 3'-{[(3S)-3-amino-3-methylpyrrolidin-1-yl]methyl}-3-fluoro-2'-(1,2-thiazol-5-yl)-[1,1'-biphenyl]-4-carbonitrile] | < 10 |
| N#Cc1ccc(-c2cc(CN3C[C@]4(N)CC[C@H]3C4)ccc2C2CC2)cc1F [Example 308, 5'-{[(1S,4S)-4-amino-2-azabicyclo[2.2.1]heptan-2-yl]methyl}-2'-cyclopropyl-3-fluoro-[1,1'-biphenyl]-4-carbonitrile] | 25 to 100 |
| N#Cc1ccc(-c2cccc(CN3[C@@H]4CC[C@H]3C[C@H](N)C4)c2C2CC2)cc1F [Example 321, 3'-{[(1R,3S,5S)-3-amino-8-azabicyclo[3.2.1]octan-8-yl]methyl}-2'-cyclopropyl-3-fluoro-[1,1'-biphenyl]-4-carbonitrile] | 10 to 25 |
| N#Cc1ccc(-c2cccc(CN3C[C@H]4C[C@@H]3CCN4)c2C2CC2)cc1F [Example 322, 2'-cyclopropyl-3'-{[(1R,5S)-2,6-diazabicyclo[3.2.1]octan-6-yl]methyl}-3-fluoro-[1,1'-biphenyl]-4-carbonitrile] | 25 to 100 |
| N#Cc1ccc(-c2cccc(CN3CC4CC(C3)N4)c2C2CC2)cc1F [Example 323, 4-[2-cyclopropyl-3-(3,6-diazabicyclo[3.1.1]heptan-3-ylmethyl)phenyl]-2-fluoro-benzonitrile; (2R,3R)-2,3-dihydroxybutanedioic acid] | 10 to 25 |
| N#Cc1ccc(-c2cccc(CN3C[C@@H]4CNC[C@H]4C3)c2-c2cncs2)cc1F [Example 324, 3'-{[(3aS,6aS)-octahydropyrrolo[3,4-c]pyrrol-2-yl]methyl}-3-fluoro-2'-(1,3-thiazol-5-yl)-[1,1'-biphenyl]-4-carbonitrile] | 10 to 25 |
| N#Cc1ccc(-c2cccc(CN3CCC4(CCNC4)C3)c2-c2cnco2)cc1 (centres unmarked) [Example 325, 3'-({2,7-diazaspiro[4.4]nonan-2-yl}methyl)-2'-(1,3-oxazol-5-yl)-[1,1'-biphenyl]-4-carbonitrile] | 10 to 25 |
| N#Cc1ccc(-c2cccc(CN3C[C@H](N)C[C@H](C(F)(F)F)C3)c2Cl)cc1F [Example 326, 3'-{[(3R,5S)-3-amino-5-(trifluoromethyl)piperidin-1-yl]methyl}-2'-chloro-3-fluoro-[1,1'-biphenyl]-4-carbonitrile] | > 1000 |
| N#Cc1ccc(-c2cccc(CN3CCCC34CCCNC4)c2Cl)cc1F (centres unmarked) [Example 327, 2'-chloro-3'-({1,7-diazaspiro[4.5]decan-1-yl}methyl)-3-fluoro-[1,1'-biphenyl]-4-carbonitrile] | > 1000 |
| N#Cc1ccc(-c2cccc(CN3CC4(N)CCC3CC4)c2Cl)cc1F [Example 328, 3'-({4-amino-2-azabicyclo[2.2.2]octan-2-yl}methyl)-2'-chloro-3-fluoro-[1,1'-biphenyl]-4-carbonitrile] | 100 to 1000 |
| C[C@@H]1[C@@H](N)CCCN1Cc1cccc(-c2ccc(C#N)c(F)c2)c1Cl [Example 329, 3'-{[(2R,3S)-3-amino-2-methylpiperidin-1-yl]methyl}-2'-chloro-3-fluoro-[1,1'-biphenyl]-4-carbonitrile] | > 1000 |
| C[C@@H]1CC[C@H](N)CN1Cc1cccc(-c2ccc(C#N)c(F)c2)c1Cl [Example 330, 3'-{[(2R,5S)-5-amino-2-methylpiperidin-1-yl]methyl}-2'-chloro-3-fluoro-[1,1'-biphenyl]-4-carbonitrile] | > 1000 |
| N#Cc1ccc(-c2cccc(CN3CCCC(N)C3)c2Cl)cc1F (centres unmarked) [Example 332, 3'-[(3-aminopiperidin-1-yl)methyl]-2'-chloro-3-fluoro-[1,1'-biphenyl]-4-carbonitrile] | 100 to 1000 |
